According to patent US20220168392A1 (priority 2019, published 2022):
Square brackets hold non-standard residues; d marks the D form. * marks the point of attachment. 2Nal = N[C@@H](Cc1ccc2ccccc2c1)C(=O)O; Propionyl = CCC(=O)*; Sar = CNCC(=O)O

How the values were obtained:
[1] = test system: CD2F1 male mice exposed to supra-lethal TBI; test: Survival and recovery from gastrointestinal injury at supra-lethal TBI; type: in vivo, mouse
Protocol: Data are expressed as mean±Standard error of mean (SEM). Irradiated TPOm group compared with saline treated group, statistical significance by Student T test (p≤0.0001)
Bacterial translocation was determined as bacterial load in liver and spleen tissue as a result of radiation injury to the intestines and was quantified by real-time polymerase chain reaction (PCR) using the 16S rRNA gene consensus sequence. Naïve jejunum serves as a positive control and naïve spleen and liver serve as negative controls/baseline values. Data are expressed as mean±Standard error of mean (SEM). Irradiated TPOm group compared with saline treated group, statistical significance by Student T test (p≤0.0001).
Data are expressed as mean±Standard error of mean (SEM). Irradiated TPOm group compared with saline treated group, statistical significance by Student T test (p≤0.0001). Serum amaloyd A (SAA) and pro-calcitonin (PCT), sepsis markers, were both measured by ELISA.
Jejunum samples were collected at days 1, 3, 7, 9 post-TBI. Representative sections were stained with H&E. There was a 100% increased survival in the RWJ-800088 treated mice compared to the saline treated animals (FIG. 9A—Kaplan Meier plot).

[2] = test system: dogs after whole body radiation at an LD50 exposure; test: Dog pilot whole body irradiation study; type: in vivo; settings: single 10 mg/kg dose 24 hours after whole body radiation at LD50
Protocol: A pilot radio-mitigation study was conducted in dogs with RWJ-800088.

[3] = test system: CD2F1 mice exposed to TBI (7 Gy); test: Hematological recovery (peripheral blood counts) after non-lethal 7 Gy TBI; type: in vivo, mouse
Protocol: Hematological recovery with RWJ-800088: To study the effects of prophylactic administration of RWJ-800088 on the recovery from hematopoietic injury following TBI, CD2F1 mice (n=10 per group) were treated with either a single dose of RWJ-800088 (0.3 mg/kg) or its vehicle (saline) 24 hours pre-TBI at a non-lethal dose of 7.0 Gy. This dose allows the animals to recover completely from the radiation-induced hematopoietic injury. In addition, a group of sham irradiated mice were given either the drug or saline. Blood collection was performed using a 23 G needle from the submandibular vein after anesthetizing the mice with isoflurane (Hospira Inc., Lake Forest, Ill.) at 2 hours and on days 1, 3, 7, 10, 14, 21, and 30 post-TBI. All mice were allowed to recover fully from anesthesia and monitored closely for any signs of a post-anesthesia reaction or bleeding at the collection site before returned to group housed cages. Approximately 20 μL of blood was collected in EDTA tubes and was continually rotated until CBC/differential analysis was completed using a HESKA Element HT™ 5 Analyzer system (HESKA Corporation, Loveland, Colo.). This CBC/differential analysis included white blood cells (WBC) counts, absolute neutrophil counts (Liem-Moolenaar, Clin Pharmacol Ther. 2008 October; 84(4):481-7), monocytes (MON), lymphocytes (LYM), red blood cells (RBC), hematocrits (HCT), and platelets (PLT) counts.

healthy rhesus monkeys = test: Maximum platelet count to baseline in healthy rhesus monkeys, escalating doses; type: in vivo, rhesus monkey; parameters: key to pharmacodynamics (PD) effect class of the dose (beneficial effects on survival): **: large pharmacodynamics (PD) effect; *: modest effect
Protocol: A pilot PK/PD study was performed to evaluate the efficacy of RWJ-800088 in rhesus monkeys (Study No. 2016-2693—CiToxLAB North America). Rhesus monkeys (n=10/group, 5 male/5 female) were treated with vehicle or RWJ-800088 (a single dose of 30 mg/kg RWJ-800088) administered 24 hours post TBI gamma radiation (600 cGY). […] The ratio of the maximum platelet count to baseline following escalating doses of RWJ-800088 to healthy rhesus monkeys is as follows: 0.97±0.06× at 0.5 mg/kg, 1.08±0.15× at 2 mg/kg, 1.98±0.16× at 10 mg/kg, 2.9±0.03× at 20 mg/kg, and 3.83±0.11× at 40 mg/kg).
The ratio of the maximum platelet counts to the baseline platelet counts following single escalating doses of RWJ-800088 to mice, rats, dogs, rhesus monkeys and human healthy volunteers is shown in Table 5. The dose required to achieve a 2-3.5-fold elevation in humans is ˜100-fold lower compared to mice, ˜1,000-fold lower compared to rats and >10,000-fold lower compared to canines and NHPs. […] The species differences in potency has been described for other TPO mimetics in the literature and is attributed to differences in receptor affinity (Erickson-Miller C L, et al. Discovery and characterization of a selective, nonpeptidyl thrombopoietin receptor agonist. Exp. Hematol. 2005; 33:85-93). […] It is discovered that the dose of RWJ-800088 that produces a survival benefit and protects against vascular and organ injury is the dose that produces a 2-4 fold elevation of platelets (Table 6).

[4] = day 7 post-TBI 7 Gy, 0.3 mg/kg 24 h pre-TBI
[5] = day 10 post-TBI 7 Gy, 0.3 mg/kg 24 h pre-TBI
[6] = day 14 post-TBI 7 Gy, 0.3 mg/kg 24 h pre-TBI

methoxypolyethyleneglycol20000-propionyl-L-Isoleucyl-L-Glutamyl-Glycyl-L-Prolyl-L-Threonyl-L-Leucyl-L-Arginyl-L-Glutaminyl-L-2-Naphthylalanyl-L-Leucyl-L-Alanyl-L-Alanyl-L-Arginyl-Sarcosyl-Ne-(methoxypolyethyleneglycol20000-propionyl-L-Isoleucyl-L-Glutamyl-Glycyl-L-Prolyl-L-Threonyl-L-Leucyl-L-Arginyl-L-Glutaminyl-L-2-Naphthylalanyl-L-Leucyl-L-Alanyl-L-Alanyl-L-Arginyl-Sarcosyl-)-Lysinamide ({mPEG 20 kDa-Propionyl}-IEGPTLRQ[2Nal]LAAR[Sar]K-NH2; also: dimer: second identical mPEG-propionyl chain on Lys Nε of C-terminal lysinamide) [RWJ-800088]
bacterial translocation to the liver and spleen ([1]; 1 mg/kg 24 hours prior to TBI (12.5 Gy per FIG. 10 legend)): significantly reduced | number of viable crypts in jejunum ([1]; 11 Gy, 1 mg/kg 24 h prior to TBI (FIG. 9C)): significant increase | increased survival compared to saline treated animals ([1]; 11 Gy, 1 mg/kg 24 h prior to TBI, 8 mice/group/time point (FIG. 9A)): 100% | circulating sepsis biomarkers, serum amyloid A and procalcitonin ([1]; nine days post-TBI 11 Gy, 1 mg/kg 24 hours prior to TBI): significant reduction | Blood transfusions [2]: 1.25/ /animal | Days of febrile neutropenia [2]: 1.08 | Diarrhea [2]: 2/12 | Mean survival time [2]: 36 days | Mild to moderate necrohemorrhagic bronchioalveolar or minimal subacute bronchioalveolar inflammation [2]: 6/12 | Mild to severe hematopoietic bone marrow hypocellularity [2]: 6/12 | Mortality [2]: 7/12 | Neutropenia nadir [2]: 9e+07 L⁻¹ | Severe neutropenia duration [2]: 5.4 | recovery from cytopenia of all blood cell counts vs vehicle control ([3]; 7 Gy, 0.3 mg/kg 24 h pre-TBI): significant | Neutrophil (NEU) counts [3, 4]: 0.31±0.026 cells/μL | white blood cell (WBC) counts [3, 4]: 0.5±0.037 cells/μL | lymphocyte (LYM) vs vehicle-treated group ([3]; day 10 post-TBI 7 Gy): significant (p<0.05) increases | platelet (PLT) count [3, 5]: 1565×10^3±148×10^3 cells/μL | white blood cell (WBC) counts [3, 5]: 1.39±0.1756 cells/μL | RBC counts of irradiated vehicle-treated group compared with irradiated RWJ-800088 treated group ([3]; day 14 post-TBI 7 Gy): same effect was also observed | Neutrophil (NEU) counts [3, 6]: 1.54±0.21 cells/μL | white blood cell (WBC) counts [3, 6]: 2.43±0.32 cells/μL | platelet (PLT) count ([3]; day 14 post-TBI 7 Gy, 0.3 mg/kg 24 h pre-TBI, irradiated RWJ-800088 treated group): 1070×10^3±156×10^3 cells/μL | % HCT of irradiated vehicle-treated group compared with irradiated RWJ-800088 treated group ([3]; day 14 post-TBI 7 Gy, p<0.001): significantly lower | monocyte (MON) counts vs irradiated vehicle-treated group ([3]; days 7, 10 and 14 post-TBI 7 Gy, p<0.001): markedly higher | PLT in non-irradiated groups vs saline ([3]; non-irradiated, days 7 and 10 post-TBI (days 8 and 11 after administration), 0.3 mg/kg): significant (p<0.05) increase in PLT | ratio of the maximum platelet count to baseline (healthy rhesus monkeys; 0.5 mg/kg): 0.97±0.06 × | ratio of the maximum platelet count to baseline (healthy rhesus monkeys; 2 mg/kg): 1.08±0.15 × | ratio of the maximum platelet count to baseline (healthy rhesus monkeys; 10 mg/kg): 1.98±0.16 × | ratio of the maximum platelet count to baseline (healthy rhesus monkeys; 20 mg/kg): 2.9±0.03 × | ratio of the maximum platelet count to baseline (healthy rhesus monkeys; 40 mg/kg): 3.83±0.11 × | NHP Max Platelet Ratio (healthy rhesus monkeys; CiToxLAB North America Study No. 2016-2693, dose 30000 μg/kg): 3.25 | Average of the Maximum Platelet Elevation/Baseline Platelet Counts (healthy rhesus monkeys; Monkey, dose 40000 μg/kg): 3.83 | pharmacodynamics (PD) effect class of the dose (beneficial effects on survival) (healthy rhesus monkeys; NHP, dose 30000 μg/kg): * | Dose for 2.0-4x Platelet Elevation in Healthy Subjects (healthy rhesus monkeys; Rhesus): ≥30 mg/kg | NHP Max Platelet Ratio (healthy rhesus monkeys; TOX9795/B201016-K013, dose 500 μg/kg): 0.9 ± 0.1 | NHP Max Platelet Ratio (healthy rhesus monkeys; TOX9795/B201016-K013, dose 2000 μg/kg): 1.1 ± 0.1 | NHP Max Platelet Ratio (healthy rhesus monkeys; TOX9795/B201016-K013, dose 10000 μg/kg): 2.9 ± 0.0 | NHP Max Platelet Ratio (healthy rhesus monkeys; TOX9795/B201016-K013, dose 40000 μg/kg): 3.8 ± 0.1
